Measured values published in ChEMBL document CHEMBL4342505, “Achieving In Vivo Target Depletion through the Discovery and Optimization of Benzimidazolone BCL6 Degraders” (J Med Chem, 2020).
≈ marks a conversion by molar mass, not a printed value.

How the values were obtained:
[1] = target: T1, B-cell lymphoma 6 protein (Homo sapiens, UniProt P41182)
Description: Inhibition of recombinant His-tagged human BCL6 expressed in Escherichia coli BL21 AI cell incubated for 2 hrs by TR-FRET assay

[2] = Kinetic solubility in HEPES buffer containing 5% DMSO at pH 8 incubated for 20 hrs by NMR analysis; type: physicochemical; settings: read-out: Kinetic_solubility
[3] = Kinetic solubility in PBS buffer containing 1% DMSO at pH 7.4 incubated for 2 hrs by HPLC analysis; type: physicochemical; settings: read-out: Kinetic_solubility
[4] = target: T1, B-cell lymphoma 6 protein; remark: listed apart in the source
Description: Induction of BCL6 degradation in human SUDHL-4 cells incubated for 2 hrs by immunofluorescence analysis

[5] = Metabolic stability in CD-1 mouse liver microsomes assessed as intrinsic clearance at 1 uM measured upt0 30 mins by LC-MS/MS analysis; type: ADME, Microsome; settings: 0.5 h
[6] = Lipophilicity, log D of compound at pH 7.4; type: physicochemical; settings: buffer
BCL-6/NCOR2 = BCL-6/NCOR2 (Homo sapiens, UniProt P41182)
Description: Inhibition of recombinant human Nanoluc-tagged BCL6/Halo-tagged SMRT transfected in human HEK293T cells assessed as reduction in BCL6/SMRT interaction incubated for 6 hrs by NANOBRET assay

[7] = Permeability of compound by PAMPA assay; type: ADME
OCI-Ly3 = test: Antiproliferative activity agianst human OCI-LY3 cells assessed as growth inhibition incubated for 14 days by CellTiter Glo reagent based assay
OCI-Ly1 = test: Antiproliferative activity agianst human OCI-LY1 cells assessed as growth inhibition incubated for 14 days by CellTiter Glo reagent based assay
SUD4 = test: Antiproliferative activity agianst human SUDHL4 cells assessed as growth inhibition incubated for 14 days by CellTiter Glo reagent based assay; type: functional; settings: SU-DHL-4, […]
[8] = target: T1, B-cell lymphoma 6 protein; test: Induction of BCL6 degradation in human OCI-LY1 cells incubated for 4 hrs by Western blot analysis; type: cell-based
[9] = target: T1, B-cell lymphoma 6 protein; test: Induction of BCL6 degradation in human SUDHL-4 cells incubated for 4 hrs by Western blot analysis; type: cell-based
[10] = target: T1, B-cell lymphoma 6 protein; remark: listed apart in the source
Description: Induction of BCL6 degradation in human KARPAS422 cells incubated for 2 hrs by MSD electrochemiluminescent immunoassay

[11] = target: T1, B-cell lymphoma 6 protein; settings: oci-ly1
Description: Induction of BCL6 degradation in human OCI-LY1 cells incubated for 2 hrs by MSD electrochemiluminescent immunoassay

Row | Structure (SMILES) | IC50 [1] | solubility kinetic at 20 h [2] | DC50 [4] | further results
1 | CCCCn1c(=O)n(C)c2ccc(Nc3ccnc(Cl)c3C#N)cc21 | 6600 nM | 53 µM (≈ 18.9 µg/mL) |  | 
2 | Cn1c(=O)n(CCC(C)(C)O)c2cc(Nc3ccnc(Cl)c3C#N)ccc21 |  | < 30 µM |  | solubility kinetic at 2 h [3]: 25 µM (≈ 9.65 µg/mL)
3 | COCC1CN(c2ncc(Cl)c(Nc3ccc4c(c3)n(CCC(C)(C)O)c(=O)n4C)n2)CCC1(F)F (centres undefined) |  | 72 µM (≈ 37.8 µg/mL) | 440 nM | CLH [5]: > 1000 µL/min/mg; logD [6]: 3.5
4 | Cn1c(=O)n(CCC(C)(C)O)c2cc(Nc3nc(N4C5CCC4CC(F)(F)C5)ncc3Cl)ccc21 |  | < 30 µM |  | 
5 | CC[C@@H](O)Cn1c(=O)n(C)c2ccc(Nc3ccnc(Cl)c3C#N)cc21 | 4500 nM | 307 µM (≈ 114 µg/mL) |  | 
6 | Cn1c(=O)n(CCC(C)(C)O)c2cc(Nc3nc(-n4cccn4)ncc3Cl)ccc21 | 710 nM | 146 µM (≈ 62.5 µg/mL) | > 10000 nM | IC50 (BCL-6/NCOR2): 5900 nM
7 | N#Cc1c(NCC2CC2)ccnc1Cl |  | 300 µM (≈ 62.3 µg/mL) |  | 
8 | Cn1c(=O)n(CCC(C)(C)O)c2cc(Nc3ccncc3Cl)ccc21 | 990 nM | 526 µM (≈ 190 µg/mL) |  | 
9 | Cn1c(=O)n(C)c2cc(Nc3ncccc3C#N)ccc21 |  | 300 µM (≈ 83.8 µg/mL) |  | 
10 | Cn1c(=O)n(C)c2cc(Nc3cc(SCc4ccccc4)ncn3)ccc21 |  | < 30 µM |  | 
11 | C[C@@H]1C[C@H](C)CN(c2cc(Nc3ccc4c(c3)n(CCC(C)(C)O)c(=O)n4C)c(Cl)cn2)C1 | 3500 nM | 12 µM (≈ 5.66 µg/mL) | 1800 nM | 
12 | Cn1c(=O)n(CCC(C)(C)O)c2cc(Nc3ncnc(Cl)c3Cl)ccc21 | 2100 nM | 344 µM (≈ 136 µg/mL) |  | 
13 | Cn1c(=O)n(CCC(C)(C)O)c2cc(Nc3ccnc(Cl)c3Cl)ccc21 | 1400 nM | 251 µM (≈ 99.2 µg/mL) |  | 
14 | CN(C)c1ncc(Cl)c(Nc2ccc3c(c2)n(CCC(C)(C)O)c(=O)n3C)n1 | 1200 nM | 223 µM (≈ 90.3 µg/mL) |  | 
15 | Cn1c(=O)n(CCC(C)(C)O)c2cc(Nc3nc(N4CCCCC4)ncc3Cl)ccc21 | 1000 nM | 70 µM (≈ 31.1 µg/mL) |  | 
16 | C[C@@H]1CN(c2ncc(Cl)c(Nc3ccc4c(c3)n(CCC(C)(C)O)c(=O)n4C)n2)C[C@H](C)N1C | 190 nM | 343 µM (≈ 167 µg/mL) | > 10000 nM | IC50 (BCL-6/NCOR2): 1550 nM
17 | Cn1c(=O)n(C)c2cc(Nc3ccnc(Cl)c3C#N)ccc21 |  | < 30 µM |  | solubility kinetic at 2 h [3]: 16 µM (≈ 5.02 µg/mL)
18 | Cn1c(=O)n(CCC(C)(C)O)c2cc(Nc3nc(N4CCCC(CO)C4)ncc3Cl)ccc21 (centres undefined) | 130 nM | 442 µM (≈ 210 µg/mL) | 450 nM | CLH [5]: 370 µL/min/mg; logD [6]: 2.1
19 | Cn1c(=O)n(CCC(C)(C)O)c2cc(Nc3nc(Cl)ncc3Cl)ccc21 |  | 361 µM (≈ 143 µg/mL) |  | 
20 | CC[C@H](O)Cn1c(=O)n(C)c2ccc(Nc3ccnc(Cl)c3C#N)cc21 | 4600 nM | 313 µM (≈ 116 µg/mL) |  | 
21 | CC1CN(c2ncc(Cl)c(Nc3ccc4c(c3)n(CCC(C)(C)O)c(=O)n4C)n2)CCC1(F)F (centres undefined) | 330 nM | 24 µM (≈ 11.9 µg/mL) | 180 nM | CLH [5]: 66 µL/min/mg; logD [6]: 3.9
22 | C[C@@H](O)CCn1c(=O)n(C)c2ccc(Nc3ccnc(Cl)c3C#N)cc21 |  | 308 µM (≈ 115 µg/mL) |  | 
23 | C[C@@H]1C[C@H](C)CN(c2ncc(Cl)c(Nc3ccc4c(c3)n(CCC(C)(C)O)c(=O)n4C)n2)C1 |  | < 30 µM |  | permeability [7]: 36 ×10⁻⁶ cm/s; GI50 (OCI-Ly3): 3100 nM; GI50 (OCI-Ly1): 280 nM; GI50 (SUD4): 350 nM; Activity [8]: Dose-dependent effect; Activity [9]: Dose-dependent effect; CLH [5]: 2440 µL/min/mg; logD [6]: 4.7; solubility kinetic at 2 h [3]: 6 µM (≈ 2.84 µg/mL)

Row | Structure (SMILES) | IC50 [1] | solubility kinetic at 20 h [2] | DC50 [4] | further results
24 | Cc1ccn(-c2ncc(Cl)c(Nc3ccc4c(c3)n(CCC(C)(C)O)c(=O)n4C)n2)n1 | 400 nM | 253 µM (≈ 112 µg/mL) | > 10000 nM | IC50 (BCL-6/NCOR2): 2500 nM
25 | C[C@@H]1CN(c2cc(Nc3ccc4c(c3)n(CCC(C)(C)O)c(=O)n4C)c(Cl)cn2)C[C@H](C)O1 | 930 nM | 83 µM (≈ 39.3 µg/mL) |  | IC50 (BCL-6/NCOR2): 5000 nM
26 | Cn1c(=O)n(CCC(C)(C)O)c2cc(Nc3nc(N4CCC(C(F)(F)F)CC4)ncc3Cl)ccc21 | 960 nM | 22 µM (≈ 11.3 µg/mL) | > 10000 nM | 
27 | Cn1ccnc1-c1ncc(Cl)c(Nc2ccc3c(c2)n(CCC(C)(C)O)c(=O)n3C)n1 | 480 nM | 113 µM (≈ 49.9 µg/mL) | > 10000 nM | IC50 (BCL-6/NCOR2): 4600 nM
28 | N#Cc1c(NCc2ccccc2)ccnc1Cl |  | 60 µM (≈ 14.6 µg/mL) |  | 
29 | Cn1c(=O)n(CCC(C)(C)O)c2cc(Nc3nc(N4CCCC(C(F)(F)F)C4)ncc3Cl)ccc21 (centres undefined) | 400 nM | < 30 µM | 750 nM | CLH [5]: 630 µL/min/mg; logD [6]: 4.2
30 | CCC(O)Cn1c(=O)n(C)c2ccc(Nc3ccnc(Cl)c3C#N)cc21 (racemic) | 5400 nM | 298 µM (≈ 111 µg/mL) |  | 
31 | CCC(C#N)Cn1c(=O)n(C)c2ccc(Nc3ccnc(Cl)c3C#N)cc21 (centres undefined) |  | < 30 µM |  | solubility kinetic at 2 h [3]: 9.2 µM (≈ 3.5 µg/mL)
32 | Cn1c(=O)n(CCC(C)(C)O)c2cc(Nc3nc(N4CCCC(C#N)C4)ncc3Cl)ccc21 (centres undefined) | 390 nM | 330 µM (≈ 155 µg/mL) | > 10000 nM | 
33 | Cn1c(=O)n(CCC(C)(C)O)c2cc(Nc3nc(N4CCC(F)(F)CC4)ncc3Cl)ccc21 | 310 nM | 66 µM (≈ 31.7 µg/mL) |  | DC50 [10]: 290 nM; DC50 [11]: 180 nM; GI50 (OCI-Ly3): 2600 nM; GI50 (OCI-Ly1): 500 nM; CLH [5]: 36 µL/min/mg; logD [6]: 3.4
34 | Cc1nc(C)c(-c2ncc(Cl)c(Nc3ccc4c(c3)n(CCC(C)(C)O)c(=O)n4C)n2)s1 | 1400 nM | < 30 µM | > 10000 nM | 
35 | Cn1c(=O)n(CCC(C)(C)O)c2cc(Nc3nc(N4CCC(F)(F)C(CO)C4)ncc3Cl)ccc21 (centres undefined) |  | 294 µM (≈ 150 µg/mL) |  | GI50 (OCI-Ly3): 2900 nM; GI50 (OCI-Ly1): 500 nM; GI50 (SUD4): 410 nM; logD [6]: 2.5
36 | Cn1c(=O)n(CCC(C)(C)O)c2cc(Nc3nc(N4CC5CCC(C4)C5(F)F)ncc3Cl)ccc21 | 710 nM | 22 µM (≈ 11.2 µg/mL) | > 10000 nM | 
37 | C[C@H](O)CCn1c(=O)n(C)c2ccc(Nc3ccnc(Cl)c3C#N)cc21 |  | 251 µM (≈ 93.3 µg/mL) |  | 
38 | Cn1c(=O)n(CCC(C)(C)O)c2cc(Nc3nc(N4CCOCC4)ncc3Cl)ccc21 | 270 nM | 370 µM (≈ 165 µg/mL) |  | IC50 (BCL-6/NCOR2): 2300 nM
39 | Cn1c(=O)n(CCC(C)(C)O)c2cc(Nc3c(Cl)cncc3Cl)ccc21 | 37000 nM | 126 µM (≈ 49.8 µg/mL) |  | 
40 | Cc1cc(C)n(-c2ncc(Cl)c(Nc3ccc4c(c3)n(CCC(C)(C)O)c(=O)n4C)n2)n1 | 260 nM | 404 µM (≈ 184 µg/mL) | > 10000 nM | IC50 (BCL-6/NCOR2): 1800 nM
41 | Cc1ccnn1-c1ncc(Cl)c(Nc2ccc3c(c2)n(CCC(C)(C)O)c(=O)n3C)n1 | 430 nM | 420 µM (≈ 186 µg/mL) | > 10000 nM | IC50 (BCL-6/NCOR2): 2700 nM
42 | C[C@@H]1CN(c2ncc(Cl)c(Nc3ccc4c(c3)n(CCC(C)(C)O)c(=O)n4C)n2)C[C@H](C)O1 | 150 nM | < 30 µM | > 10000 nM | IC50 (BCL-6/NCOR2): 1760 nM; CLH [5]: 104 µL/min/mg; solubility kinetic at 2 h [3]: 95 µM (≈ 45.1 µg/mL)
43 | CC1CCCN(c2ncc(Cl)c(Nc3ccc4c(c3)n(CCC(C)(C)O)c(=O)n4C)n2)C1 (centres undefined) | 640 nM | 44 µM (≈ 20.2 µg/mL) | 520 nM | IC50 (BCL-6/NCOR2): 13000 nM; CLH [5]: 2210 µL/min/mg; logD [6]: 4.2
44 | CSc1ncc(Cl)c(Nc2ccc3c(c2)n(CCC(C)(C)O)c(=O)n3C)n1 | 680 nM | 337 µM (≈ 137 µg/mL) |  | 
45 | Cc1cc(C)n(-c2cc(Nc3ccc4c(c3)n(CCC(C)(C)O)c(=O)n4C)c(Cl)cn2)n1 | 790 nM | 135 µM (≈ 61.4 µg/mL) | > 10000 nM | IC50 (BCL-6/NCOR2): 4600 nM
